# Values quoted from earlier work in patent US7799817B2, “Compositions and methods for sleep regulation” (LifeScape BioSciences Inc, priority 2004, dated 2010).
# Where two headings read alike, the source gives them in different places.
# What was measured:
# [1] = adult human
# [2] = test system: jet lag
# [3] = test system: jet lag; settings: for mean global jet lag score: 0=no jet lag, 100=extreme jet lag
smiles,measurement,setting,value
"COc1ccc2[nH]cc(CCNC(C)=O)c2c1 [melatonin, N-acetyl-5-methoxytryptamine]",half-life,[1],approximately 45 minutes
same,effectiveness of lower dose for symptoms of jet lag unrelated to sleep,[2]; 0.5 mg fast release versus 5 mg,almost as effective as the higher dose
same,effect of higher dose on sleep quality and sleep latency,[2]; 5 mg versus 0.5 mg fast release,greater effect on sleep quality and sleep latency than the lower dose
same,effectiveness of slow release form,[2]; slow release 2 mg versus 5 mg or 0.5 mg fast release,less effective than either 5 mg or 0.5 mg (fast release)
same,mean global jet lag score,"[3]; eastward flights, four trials combined, placebo 51",31
same,jet lag after melatonin administration,"[3]; eight of ten randomized, placebo-controlled trials",less jet lag
same,mean global jet lag score,"[3]; westward flights, two RCTs, placebo 41",22
